Source: paper PMC11542593, “Vascular endothelial growth factor receptor 2 as a potential host target for the inhibition of enterovirus replication” (Journal of Virology, 2024)

Key:
EV-A71 [1] = experiment: Viral load reduction assay in RD cells (RT-qPCR, TCID50, VP1 Western blot); type: cell-based, Human enterovirus A71; details: MOI 0.1, 24 h
Procedure: (§1) Detection of cellular mRNA expression and viral load was performed as described previously ([24]). In brief, the infected or mock-infected cells were lysed and applied to total RNA extraction by using the MiniBEST Universal RNA Extraction Kit (TaKaRa, Code No.9767). Viral RNA in the supernatant was extracted with the MiniBEST Viral RNA Extraction Kit (TaKaRa, Code No.9766). Reverse transcription was performed using the PrimeScript RT reagent Kit (TaKaRa, Code No.PR037A) with an oligo (dT) primer. The resultant cDNAs were used for qPCR assay with the Light Cycler 480 SYBR Green I Master Mix (Roche) to measure the mRNA expression level of cellular genes or viral load in supernatants. The relative viral gene copy was determined by RT-qPCR, using GAPDH as an internal reference.
(§2) The viral titer in the indicated samples was determined by TCID50 assay as described previously ([25]). Briefly, serially diluted samples from 10^−1 to 10^−8 in DMEM were inoculated to RD cells, BGMK cells, or MRC-5 in 96‐well plates. The cells were then incubated for 2 to 3 days at 37°C. TCID50 was calculated by counting the wells with cytopathic effect in infected cells using the Reed–Muench method.
Western blot analysis was performed as described previously ([26]). In brief, the indicated cell samples were lysed in RIPA buffer supplemented with protease inhibitors (Thermo Fisher Scientific, 78430). The cell lysates were then separated in 10% SDS-PAGE and transferred to a 0.45-µm nitrocellulose membrane. After blocking, the membrane was incubated with an against VP1 antibody (GeneTex, GTX132339), VEGFR1 antibody (Abcam, ab32152), VEGFR2 antibody (Abcam, ab134191), phosphorylated VEGFR2 antibody (Tyr951) (CST 4991), VEGFR3 antibody (Beyotime, AF6918), Akt antibody (CST 4685), phosphorylated Akt antibody (CST 4060), or GAPDH antibody (GeneTex, GTX627408) diluted 1:5,000 in primary antibody dilution buffer overnight at 4°C, followed by corresponding secondary staining. The blots were visualized by western horseradish peroxidase substrate and imaged with Gel Doc XR+.
The results represent cell viability in the EV-A71-infected RD cells or 2D human intestinal organoids treated with DMSO (Negative control), Pirodavir (Positive control), or indicated VEGFR inhibitor (10 µM) relative to those in mock-infected RD cells or 2D human intestinal organoids. […] Significant inhibition of EV-A71 infection was found for both cell lysate (left) and supernatant (right) using RT-qPCR analysis. The results represent the viral load in the cells treated with indicated inhibitors relative to that in DMSO-treated cells. (C) Viral titer was also determined for inhibitor-treated samples in TCID50 assays. […] (D) Representative images of immunofluorescence assay for selected inhibitors using Rabbit anti‐VP1 antibody (green). Nuclei are counterstained with DAPI (blue). Scale bar, 50 µm.
Nuclei are counterstained with DAPI (blue). Scale bar, 50 µm.
Fig. S2. […] The results represent the viral load in the cells treated with indicated concentration of VEGFR inhibitors relative to that in DMSO-treated cells. Viral titer was also determined for samples treated with indicated concentrations of VEGFR inhibitors in TCID50 assays.
Fig. S7. Viral reduction in RD cells with Src inhibitor treatment. […] Significant inhibition of EV-A71 infection was found for both cell lysate (left) and supernatant (middle) using RT-qPCR analysis. The results represent the viral load in the cells treated with Dasatinib relative to that in DMSO-treated cells. Viral titer was also determined for inhibitor-treated samples in TCID50 assays (right). […] (C) VP1 protein levels were measured for samples treated with DMSO or Dasatinib using western blotting.
Fig. S8. Viral reduction in RD cells with Akt inhibitor treatment. […] Significant inhibition of EV-A71 infection was found for both cell lysate (left) and supernatant (middle) using RT-qPCR analysis. […]

EV-A71 [2] = experiment: Multi-cycle virus growth assay in RD cells (TCID50); type: cell-based, Human enterovirus A71; details: 10 µM, MOI 0.01, entire time-course
Description: RD cells were infected with EV‐A71 at an MOI of 0.01. Viral titers in cell culture supernatants were quantified by TCID50 assay at indicated time points. […] RD cells were infected with EV‐A71 at an MOI of 1. […] At 12 hpi, the cells were lysed for detecting mRNA expression levels of proinflammatory cytokines and chemokines. IL-6, interleukin 6; IL-8, interleukin 8; TNF-α, tumor necrosis factor-α.

CVA10 = experiment: Antiviral activity against CVA10 in RD cells (RT-qPCR, TCID50); type: cell-based, coxsackievirus A10; details: 10 µM, 0.1 MOI, 24 h
Procedure: as §1, §2
The viral gene copy in the cell lysate is normalized with the transcript of GAPDH and presented. Viral titers were also detected by TCID50 assay. […] All experiments were independently repeated thrice.

EV-A71 [3] = experiment: Flow cytometry of VP1-positive EV-A71-infected RD cells; type: cell-based, Human enterovirus A71; details: 10 μM, MOI 2, 6 and 9 hpi
Procedure: Flow cytometry analysis was performed according to the standard protocol as described previously ([28]). In brief, the infected or mock-infected RD cells were dissociated with 10 mM EDTA and then fixed with 4% paraformaldehyde for 30 min. After permeabilization, the cells were incubated with rabbit anti‐VP1 antibody (GeneTex, GTX132339), followed by labeling with FITC-conjugated goat anti-rabbit IgG (Beyotime, P0176). Flow cytometry analysis was performed using a BD Fortessa flow cytometer (BD Biosciences), and the data were analyzed using FlowJo v.10 (Tree Star, USA).
Fig. S4. […] Then the infected- and mock-infected RD cells were fixed, labeled, and applied to flow cytometry to evaluate the percentage of VP1-positive cells at 0, 3, 6 and 9 hpi. […] Mean and SD of three independent experiments are presented (B and C). *p < 0.05; **p < 0.01.

[4] = CellTiter-Glo luminescent cell viability assay (cytotoxicity); details: human, RD cells
Procedure: Fig. S1. (A) RD cells were treated with the indicated concentrations of inhibitors and incubated at 37°C for 24 h. CellTiter‐Glo® luminescent cell viability assay was used to measure the CC50 of selected inhibitors. […] (B) RD cells treated with the selected inhibitors (10 μM) were inoculated with EV-A71 at an MOI of 0.01. At 48 hpi, cells were harvested to detect the expression level of VP1 by western blotting.

EV-A71 [5] = experiment: EV-A71 inactivation (virucidal) assay; set-up: species or system Human enterovirus A71; details: 10 µM, 2 h at 25°C, TCID50
Procedure: Fig. S5. […] (A) EV-A71 inactivation assay. […] (B) EV-A71 attachment assay. […] After 2 hpi, the infectious inoculum was removed and cells were washed again. The intracellular viral RNA load was then determined using RT-qPCR analysis. (C) EV-A71 entry assay.

EV-A71 [6] = experiment: EV-A71 replication in multiple cell types (293T, Vero-E6, Huh7, HepG2, HT-29, Caco2); type: cell-based, Human enterovirus A71; details: Vero-E6, Huh7, HepG2 (MOI 1), HT-29, Caco2 (MOI 2), 24 hpi

## Cc1ccc(Nc2nccc(N(C)c3ccc4c(C)n(C)nc4c3)n2)cc1S(N)(=O)=O [Pazopanib]
EV-A71 [1]; indicated concentrations
  EV-A71 structural protein VP1 expression, dose dependence (Western blot): dose-dependent inhibition
EV-A71 [1]; indicated noncytotoxic concentrations
  EV-A71 viral load and viral titer, dose dependence: markedly reduced
EV-A71 [2]
  decrease of viral titers in the cell supernatant vs DMSO: over 4 logs
CVA10
  viral load and viral titer of CVA10 in cell lysates and supernatants: significantly reduced
EV-A71 [3]
  percentage of EV-A71-infected RD cells: markedly decreased
[4]
  CC50 at 24 h: 226 ± 27.6 µM
EV-A71 [5]
  virucidal effect (EV-A71 virus titers vs DMSO): no virucidal effect
EV-A71 [6]
  EV-A71 replication in cell culture supernatants of multiple cell types: significantly reduced
